Test results reported in patent publication US20050112728A1, “Adenosylmethionine synthetase from streptomyces sp gene sequences coding the same and method for mass production for secondary metabolites including antibiotics thereof” (priority 2001, published 2005).

Key:
S. lividans TK23 [1] = assay: Effect of externally added SAM on productivity of actinorhodin; type: cell-based, Streptomyces lividans; settings: wild type S. lividans TK23, 1 mM commercially available SAM, FIG. 5
Description: Based on the finding that in vivo over-expressed SAM positively affects production yield of actinorhodin in S. lividans TK23, an effect of SAM on productivity of actinorhodin was investigated when commercially available SAM is added directly to culture medium containing S. lividans TK23. As such, wild type S. lividans TK23 was treated with 1 mM of commercially available SAM.

S. avermitilis = assay: Effect of SAM on avermectin production (Exp. 7); type: cell-based; settings: 1 mM SAM, incubation for 5 days, 25° C.
Description: (§1) Each Streptomyces species was incubated in its corresponding culture medium according to Table 1, and treated with 1 mM of SAM (Sigma, USA). After incubation for 5 days, antibiotic concentration was measured in each culture medium.

S. cinnamonensis = assay: Effect of SAM on monensin production (Exp. 8); type: cell-based; settings: 1 mM SAM, incubation for 5 days, 30° C.
Description: as §1

S. spectabilis = assay: Effect of SAM on spectinomycin production (Exp. 9); type: cell-based; settings: 1 mM SAM, incubation for 5 days, 30° C.
Description: as §1

S. peucetius = assay: Effect of SAM on doxorubicin production (Exp. 10); type: cell-based; settings: 1 mM SAM, incubation for 5 days, 30° C.
Description: as §1

S. griseus = assay: Effect of SAM on streptomycin production (Exp. 11); type: cell-based; settings: 1 mM SAM, incubation for 5 days, 30° C.
Description: as §1

S. aureofaciens [2] = assay: Effect of SAM on tetracycline production (Exp. 12); type: cell-based; settings: 1 mM SAM, incubation for 5 days, 28° C.
Description: as §1

S. aureofaciens [3] = assay: Effect of SAM on chlortetracycline production (Exp. 13); type: cell-based; settings: 1 mM SAM, incubation for 5 days
Description: as §1

[4] = Assay for activity of SAM-s (HPLC analysis of reaction products); type: biochemical, Streptomyces spectabilis ATCC 27741; settings: protein expressed in E. coli, 5 mM ATP, 5 mM methionine, 120 min at 30° C.
Description: In order to analyze activity of “SAM-s”, the gene encoding “SAM-s” was expressed in E. coli, and the resulting translational product, “SAM-s”, was then isolated.
To express the gene encoding “SAM-s” in E. coli, the gene was inserted into a pET-21a vector, and then introduced into E. coli BL21. The expressed gene product, “SAM-s” was isolated using a His-Tag purification system. Thereafter, 10 to 50 μl of the enzyme solution containing the protein “SAM-s” was added to a reaction mixture containing 100 mM of Tris-HCl, 200 mM of KCl, 10 mM of MgCl2, 1 mM DTT, 5 mM ATP, and 5 mM methionine, followed by incubation for 120 min at 30° C. After the incubation, reaction products were analyzed through HPLC using Reverse C18 column. In this regard, the column loaded with sample was initially equilibrated with a solution of 0.1 M of NaH2PO4/acetonitrile at a ratio of 98:2 (V/V), pH 2.65. Then, a second solution comprising 0.15 M NaH2PO4/acetonitrile at a ratio of 74:26 (V/V) was applied with continuous mixing with the first solution, forming a concentration gradient.

S. lividans TK23 [5] = assay: Actinorhodin production in S. lividans TK23 transformed with pSAM-s; type: cell-based, Streptomyces lividans; settings: over-expression of SAM-s, incubation for 7 days at 28° C., FIG. 4
Description: The gene encoding “SAM-s” was first inserted into pWHM3, which is a shuttle vector between E. coli and Streptomyces species, giving an expression vector pSAM-s. The plasmid pSAM-s was then introduced into S. lividans TK23. The resulting transformant, Streptomyces lividans TK-23 harboring pSAM-s, was deposited in the Korean Culture Center of Microorganisms with accession No. KCCM 10397 on Jul. 2, 2002. The transformant was incubated in one liter of a medium including 50 g of glycerol, 5 g of glutamic acid, 21 g of morpholinopropane sulfonic acid, 200 mg of MgSO47H2O, 100 mg of CaCl22H2O, 100 mg NaCi, 82 mg KH2PO4, 9 mg FeSO47H2O, and 2 ml of trace element solution, adjusted to pH 6.5. During incubation for 7 days at 28° C., production yield of actinorhodin, which is a main antibiotic produced from S. lividans TK23, was analyzed.

Molecule | actinorhodin production versus control not treated with SAM (S. lividans TK23 [1]) | Production amount of a treatment group, Avermectin (S. avermitilis) | Production amount of a treatment group, Monensin (S. cinnamonensis) | Production amount of a treatment group, Spectinomycin (S. spectabilis) | Production amount of a treatment group, Doxorubicin (S. peucetius) | Production amount of a treatment group, Streptomycin (S. griseus) | Production amount of a treatment group, Tetracycline (S. aureofaciens [2]) | Production amount of a treatment group, Chlortetracycline (S. aureofaciens [3]) | activity to synthesize SAM [4] | production of actinorhodin in the transformant in comparison with wild type S. lividans (S. lividans TK23 [5])
C[S+](CC[C@H](N)C(=O)O)C[C@H]1O[C@@H](n2cnc3c(N)ncnc32)[C@H](O)[C@@H]1O (stereo partly drawn) [SAM, S-adenosyl-L-methionine] | produces more actinorhodin | 25 µg/mL | 180 µg/mL | 35 µg/mL | 300 µg/mL | 602 µg/mL | 188 µg/mL | 130 µg/mL |  | 
SAM-s: enzyme catalyzing SAM biosynthesis from Streptomyces spectabilis ATCC 27741, SEQ ID NO. 2 (protein, Steptomyces spectabilis ATCC 27741) MSRRLFTSESVTEGHPDKIADQISDTILDALLREDPTSRVAVETLITTGLVHVAGEVTTKAYAPIAQLVREKILEIGYDSSKKGFDGASCGVSVSIGAQSPDIAQGVDTAYESRVEGDEDELDRQGAGDQGLMFGYACDETPELMPLPIHLAHRLSRRLSEVRKNGTIPYLRPDGKTQVTIEYDGDKAVRLDTVVVSSQHASDIDLESLLAPDIREFVVEPELKALVEDGIKLVVEPELKALVEDGIKLETEGYRLLVNPTGRFEIGGPMGDAGLTGRKIIIDTYGGMSRHGGGAFSGKDPSKVDRSAAYAMRWVAKNVVAAGLASRCEVQVAYAIGKAEPVGLFVETFGTNTIDTDKIEQAISEVFDLRPAAIIRSLDLLRPIYSQTAAYGHFGRSLPEFTWEKTDRVDALRKAAGLES |  |  |  |  |  |  |  |  | has an activity to synthesize SAM | over six times
